Legend:
B-Raf V600E = B-Raf V600E (Homo sapiens, UniProt P15056, V600E); experiment: B-Raf V600E biochemical kinase inhibition (AlphaScreen, biotin-MEK1 substrate); details: 100 μM ATP
Protocol: (§1) Compounds to be tested are diluted in dimethyl sulfoxide to a concentration of 0.1 mM. These are serially diluted 15 μL into 30 μL of dimethyl sulfoxide seven times in 96 well plates for a total of 8 dilution points, and for each dilution point 1 μL is added to a well of an assay plate. […] The reaction is started with addition of 10 μL of 200 μM ATP (i.e. final 100 μM ATP). […] The plates are incubated for 3 hours at room temperature and read on Envision reader (Perkin Elmer). […] The signal vs. compound concentration is used to determine the IC50.

c-Raf-1 = c-Raf-1 (Homo sapiens, UniProt P04049); experiment: c-Raf-1 biochemical kinase inhibition (AlphaScreen, biotin-MEK1 substrate); details: 100 μM ATP
Chain of c-Raf-1 (P04049 whole entry): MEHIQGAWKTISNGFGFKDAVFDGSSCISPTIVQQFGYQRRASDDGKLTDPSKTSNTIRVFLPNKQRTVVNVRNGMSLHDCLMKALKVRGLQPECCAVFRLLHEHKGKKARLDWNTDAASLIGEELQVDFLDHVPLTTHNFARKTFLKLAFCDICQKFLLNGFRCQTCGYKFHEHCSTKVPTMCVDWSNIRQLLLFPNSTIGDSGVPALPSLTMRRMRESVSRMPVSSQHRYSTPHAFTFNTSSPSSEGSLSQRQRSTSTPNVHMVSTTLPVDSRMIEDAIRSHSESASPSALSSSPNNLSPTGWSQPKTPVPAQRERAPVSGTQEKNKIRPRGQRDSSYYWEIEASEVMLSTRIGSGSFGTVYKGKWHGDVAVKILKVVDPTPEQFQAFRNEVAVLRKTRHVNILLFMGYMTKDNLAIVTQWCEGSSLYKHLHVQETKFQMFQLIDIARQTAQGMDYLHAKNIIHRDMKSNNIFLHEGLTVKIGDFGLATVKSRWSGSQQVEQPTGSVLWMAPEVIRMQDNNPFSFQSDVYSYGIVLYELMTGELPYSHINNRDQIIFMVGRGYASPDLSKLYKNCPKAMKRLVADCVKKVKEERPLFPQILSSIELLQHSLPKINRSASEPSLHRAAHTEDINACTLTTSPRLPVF
Protocol: as §1

[1] = test system: A375 melanoma cells (B-Raf V600E); experiment: A375 cell growth inhibition (ATPlite); type: cell-based; details: Homo sapiens, A-375, 72 h; A375, 3 days incubation
Outline: (§2)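 Cells plated overnight, then exposed 3 days at 37° C to 8-point 1:3 compound dilutions topping at 10 μM final. Viability read as ATPlite luminescence, proportional to cell number; IC50 from luminescence versus concentration.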

[2] = test system: COLO205 colon adenocarcinoma cells (B-Raf V600E); experiment: COLO205 cell growth inhibition (ATPlite); type: cell-based; details: Homo sapiens, COLO 205, 72 h; COLO205, 3 days incubation
Outline: as §2

CYP3A4(BQ) = CYP3A4(BQ) (Homo sapiens, UniProt P08684); experiment: CYP3A4(BQ) inhibition (fluorescent substrate); type: in vitro ADME; details: read-out: Cyp IC50 3A4(BQ)
Chain of CYP3A4(BQ) (P08684 whole entry): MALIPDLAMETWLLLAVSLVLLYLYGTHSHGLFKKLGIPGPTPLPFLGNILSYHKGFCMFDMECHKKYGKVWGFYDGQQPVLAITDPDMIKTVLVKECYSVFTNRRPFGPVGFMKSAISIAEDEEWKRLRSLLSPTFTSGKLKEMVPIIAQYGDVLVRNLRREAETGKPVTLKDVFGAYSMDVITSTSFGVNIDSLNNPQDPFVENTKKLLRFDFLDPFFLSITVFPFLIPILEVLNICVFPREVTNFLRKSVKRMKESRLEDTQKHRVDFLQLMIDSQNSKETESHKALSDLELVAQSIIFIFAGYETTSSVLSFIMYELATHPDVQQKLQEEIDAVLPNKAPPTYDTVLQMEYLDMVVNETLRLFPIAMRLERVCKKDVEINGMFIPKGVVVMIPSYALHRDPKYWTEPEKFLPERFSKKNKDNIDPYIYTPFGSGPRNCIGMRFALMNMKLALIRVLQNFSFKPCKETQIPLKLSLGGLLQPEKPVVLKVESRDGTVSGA
Protocol: CYP (Cytochrome P450) enzymes are the major drug metabolizing enzymes present in the liver. The inhibition of CYP enzyme activity (IC50) for each of CYP1A2, CYP2C19, CYP2C9, CYP2D6, CYP3A4(BFC) and CYP3A4(BQ) is determined for compounds, where inhibition of metabolism of a known substrate leads to a decrease in the fluorescence of the metabolized product. The fluorescence of the product is monitored as a function of compound concentration. Compounds are dissolved in dimethyl sulfoxide to a concentration of 100 mM. These are diluted 1 μL into 82 μL of acetonitrile. […] These are then serially diluted 1:1 (160 μL to 160 μL co-factor mix) for a total of 10 points. A 10 μL aliquot of this final mixture is dispensed into 384 well assay plates and incubated for 10 minutes at 37° C. […] Assay plates are incubated at 37° C. […] The signal versus compound concentration is used to determine the IC50. The enzymes and substrates for this assay are obtained from BD Biosciences.

Chain of B-Raf V600E (P15056 whole entry V600E): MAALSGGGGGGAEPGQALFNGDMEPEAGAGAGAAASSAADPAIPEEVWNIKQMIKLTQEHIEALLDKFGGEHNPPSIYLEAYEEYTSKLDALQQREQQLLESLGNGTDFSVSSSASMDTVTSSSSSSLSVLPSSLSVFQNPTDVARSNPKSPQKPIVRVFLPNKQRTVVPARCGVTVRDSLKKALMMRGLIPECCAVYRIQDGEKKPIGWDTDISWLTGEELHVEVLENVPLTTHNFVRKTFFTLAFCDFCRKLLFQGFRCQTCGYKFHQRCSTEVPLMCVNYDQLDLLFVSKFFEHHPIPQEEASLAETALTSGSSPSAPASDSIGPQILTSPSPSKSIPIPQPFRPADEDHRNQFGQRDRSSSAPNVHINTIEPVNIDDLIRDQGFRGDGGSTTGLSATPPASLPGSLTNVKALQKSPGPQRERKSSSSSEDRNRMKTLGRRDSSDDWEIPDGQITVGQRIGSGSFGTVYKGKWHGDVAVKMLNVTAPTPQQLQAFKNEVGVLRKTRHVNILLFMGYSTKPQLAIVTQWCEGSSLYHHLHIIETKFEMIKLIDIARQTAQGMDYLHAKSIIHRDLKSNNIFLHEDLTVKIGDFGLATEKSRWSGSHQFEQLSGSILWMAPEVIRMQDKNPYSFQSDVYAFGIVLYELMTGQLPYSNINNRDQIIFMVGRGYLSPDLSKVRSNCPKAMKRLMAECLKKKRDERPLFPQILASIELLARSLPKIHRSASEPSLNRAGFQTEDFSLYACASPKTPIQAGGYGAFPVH

IC50 (B-Raf V600E) | IC50 (c-Raf-1) | IC50 [1] | IC50 [2] | IC50 (CYP3A4(BQ)) | SMILES
< 0.01 µM | < 0.01 µM | < 1 µM | < 0.1 µM | > 10 µM | COc1ncc(-c2cnc3[nH]cc(C(=O)c4c(F)ccc(NS(=O)(=O)c5cc(F)ccc5F)c4F)c3c2)cn1 [P-2042, N-{2,4-Difluoro-3-[5-(2-methoxy-pyrimidin-5-yl)-1H-pyrrolo[2,3-b]pyridine-3-carbonyl]-phenyl}-2,5-difluoro-benzenesulfonamide]
< 0.1 µM | < 0.01 µM | < 5 µM | < 1 µM | > 10 µM | COc1ncc(-c2cnc3[nH]cc(C(=O)c4c(F)ccc(NS(=O)(=O)c5cccc(F)c5)c4F)c3c2)cn1 [P-2045, N-{2,4-Difluoro-3-[5-(2-methoxy-pyrimidin-5-yl)-1H-pyrrolo[2,3-b]pyridine-3-carbonyl]-phenyl}-3-fluoro-benzenesulfonamide]
< 0.1 µM | – | < 1 µM | – | > 10 µM | CCCS(=O)(=O)Nc1ccc(F)c(C(=O)c2c[nH]c3ncc(-c4ccc(OC)nc4OC)cc23)c1F [P-2184, Propane-1-sulfonic acid {3-[5-(2,6-dimethoxy-pyridin-3-yl)-1H-pyrrolo[2,3-b]pyridine-3-carbonyl]-2,4-difluoro-phenyl}-amide]
< 0.1 µM | < 0.01 µM | < 1 µM | < 5 µM | > 10 µM | O=C(c1c(F)ccc(NS(=O)(=O)c2c(F)cccc2F)c1F)c1c[nH]c2ncc(Cl)cc12 [P-2003, N-[3-(5-Chloro-1H-pyrrolo[2,3-b]pyridine-3-carbonyl)-2,4-difluoro-phenyl]-2,6-difluoro-benzenesulfonamide]
< 0.01 µM | – | < 10 µM | – | > 10 µM | CCCS(=O)(=O)Nc1ccc(F)c(C(=O)c2c[nH]c3ncc(-c4cncc(S(C)(=O)=O)c4)cc23)c1F [P-2188, Propane-1-sulfonic acid {2,4-difluoro-3-[5-(5-methanesulfonyl-pyridin-3-yl)-1H-pyrrolo[2,3-b]pyridine-3-carbonyl]-phenyl}-amide]
< 0.01 µM | < 0.1 µM | < 5 µM | – | > 10 µM | N#Cc1cnc2[nH]cc(C(=O)c3cccc(NS(=O)(=O)c4c(F)cccc4F)c3F)c2c1 [P-2054, N-[3-(5-Cyano-1H-pyrrolo[2,3-b]pyridine-3-carbonyl)-2-fluoro-phenyl]-2,6-difluoro-benzenesulfonamide]
< 0.01 µM | < 0.1 µM | < 0.1 µM | < 1 µM | > 10 µM | CCCS(=O)(=O)Nc1ccc(F)c(C(=O)c2c[nH]c3ncc(-c4ccc(N5CCCC5)nc4)cc23)c1F [P-2231, Propane-1-sulfonic acid {2,4-difluoro-3-[5-(6-pyrrolidin-1-yl-pyridin-3-yl)-1H-pyrrolo[2,3-b]pyridine-3-carbonyl]-phenyl}-amide]
< 0.01 µM | < 0.1 µM | < 0.1 µM | < 0.1 µM | > 10 µM | CCCS(=O)(=O)Nc1ccc(F)c(C(=O)c2c[nH]c3ncc(-c4ccc(CCCOC)nc4)cc23)c1F [P-2226, Propane-1-sulfonic acid (2,4-difluoro-3-{5-[6-(3-methoxy-propyl)-pyridin-3-yl]-1H-pyrrolo[2,3-b]pyridine-3-carbonyl}-phenyl)-amide]
< 0.01 µM | – | < 1 µM | – | > 10 µM | CCCS(=O)(=O)Nc1ccc(F)c(C(=O)c2c[nH]c3ncc(-c4ccc(C(=O)NC)nc4)cc23)c1F [P-2180, 5-{3-[2,6-Difluoro-3-(propane-1-sulfonylamino)-benzoyl]-1H-pyrrolo[2,3-b]pyridin-5-yl}-pyridine-2-carboxylic acid methylamide]
< 0.01 µM | < 0.01 µM | < 5 µM | – | > 10 µM | CCCS(=O)(=O)Nc1ccc(F)c(C(=O)c2c[nH]c3ncc(-c4cnc(OC)nc4OC)cc23)c1F [P-2199, Propane-1-sulfonic acid {3-[5-(2,4-dimethoxy-pyrimidin-5-yl)-1H-pyrrolo[2,3-b]pyridine-3-carbonyl]-2,4-difluoro-phenyl}-amide]
< 0.01 µM | < 0.01 µM | < 5 µM | – | > 10 µM | CCCS(=O)(=O)Nc1ccc(F)c(C(=O)c2c[nH]c3ncc(-c4ccc(S(N)(=O)=O)cc4)cc23)c1F [P-2194, 4-{3-[2,6-Difluoro-3-(propane-1-sulfonylamino)-benzoyl]-1H-pyrrolo[2,3-b]pyridin-5-yl}-benzenesulfonamide]
< 0.01 µM | – | < 1 µM | – | > 10 µM | CCCS(=O)(=O)Nc1ccc(F)c(C(=O)c2c[nH]c3ncc(-c4cnc(N5CCOCC5)nc4)cc23)c1F [P-2197, Propane-1-sulfonic acid {2,4-difluoro-3-[5-(2-morpholin-4-yl-pyrimidin-5-yl)-1H-pyrrolo[2,3-b]pyridine-3-carbonyl]-phenyl}-amide]

Further lines, the compound ahead of its results:

SMILES | IC50 (B-Raf V600E) | IC50 (c-Raf-1) | IC50 [1] | IC50 [2] | IC50 (CYP3A4(BQ))
COc1ccnc2[nH]cc(C(=O)c3c(F)ccc(NS(=O)(=O)c4cccc(F)c4)c3F)c12 [P-2023, N-[2,4-Difluoro-3-(4-methoxy-1H-pyrrolo[2,3-b]pyridine-3-carbonyl)-phenyl]-3-fluoro-benzenesulfonamide] | < 0.01 µM | < 0.01 µM | < 1 µM | < 5 µM | < 5 µM
CCCS(=O)(=O)Nc1ccc(F)c(C(=O)c2c[nH]c3ncc(-c4ccc(C(=O)NC5CC5)nc4)cc23)c1F [P-2181, 5-{3-[2,6-Difluoro-3-(propane-1-sulfonylamino)-benzoyl]-1H-pyrrolo[2,3-b]pyridin-5-yl}-pyridine-2-carboxylic acid cyclopropylamide] | < 0.01 µM | – | < 1 µM | – | > 10 µM
CCCS(=O)(=O)Nc1ccc(F)c(C(=O)c2c[nH]c3ncc(-c4ccnc(F)c4)cc23)c1F [P-2192, Propane-1-sulfonic acid {2,4-difluoro-3-[5-(2-fluoro-pyridin-4-yl)-1H-pyrrolo[2,3-b]pyridine-3-carbonyl]-phenyl}-amide] | < 0.01 µM | – | < 1 µM | – | > 10 µM
CCCS(=O)(=O)Nc1ccc(F)c(C(=O)c2c[nH]c3ncc(-c4cnn(Cc5ccccc5)c4)cc23)c1F [P-2190, Propane-1-sulfonic acid {3-[5-(1-benzyl-1H-pyrazol-4-yl)-1H-pyrrolo[2,3-b]pyridine-3-carbonyl]-2,4-difluoro-phenyl}-amide] | < 0.01 µM | – | < 1 µM | < 1 µM | > 10 µM
CCCS(=O)(=O)Nc1ccc(F)c(C(=O)c2c[nH]c3ncc(-c4cccc(S(C)(=O)=O)c4)cc23)c1F [P-2228, Propane-1-sulfonic acid {2,4-difluoro-3-[5-(3-methanesulfonyl-phenyl)-1H-pyrrolo[2,3-b]pyridine-3-carbonyl]-phenyl}-amide] | < 0.01 µM | < 0.01 µM | < 1 µM | – | > 10 µM
CCCS(=O)(=O)Nc1ccc(F)c(C(=O)c2c[nH]c3ncc(-c4ccc(SC)nc4)cc23)c1F [P-2187, Propane-1-sulfonic acid {2,4-difluoro-3-[5-(6-methylsulfanyl-pyridin-3-yl)-1H-pyrrolo[2,3-b]pyridine-3-carbonyl]-phenyl}-amide] | < 0.01 µM | – | < 1 µM | < 1 µM | > 10 µM
COc1ncc(-c2cnc3[nH]cc(C(=O)c4c(F)ccc(NS(=O)(=O)c5c(F)cccc5F)c4F)c3c2)cn1 [P-2043, N-{2,4-Difluoro-3-[5-(2-methoxy-pyrimidin-5-yl)-1H-pyrrolo[2,3-b]pyridine-3-carbonyl]-phenyl}-2,6-difluoro-benzenesulfonamide] | < 0.01 µM | < 0.01 µM | < 5 µM | < 1 µM | > 10 µM
COc1ncc(-c2cnc3[nH]cc(C(=O)c4c(F)ccc(NS(=O)(=O)c5ccccc5F)c4F)c3c2)cn1 [P-2041, N-{2,4-Difluoro-3-[5-(2-methoxy-pyrimidin-5-yl)-1H-pyrrolo[2,3-b]pyridine-3-carbonyl]-phenyl}-2-fluoro-benzenesulfonamide] | < 0.01 µM | < 0.01 µM | < 1 µM | < 1 µM | > 10 µM
Cc1cnc2[nH]cc(C(=O)c3c(F)ccc(NS(=O)(=O)c4cccnc4)c3F)c2c1 [P-2069, Pyridine-3-sulfonic acid [2,4-difluoro-3-(5-methyl-1H-pyrrolo[2,3-b]pyridine-3-carbonyl)-phenyl]-amide] | < 0.01 µM | < 0.01 µM | < 5 µM | < 1 µM | < 5 µM
